# “Also recorded” adds a separate entry of the source. Like-named read-outs stand apart in the source and are kept apart here.
# How the values were obtained:
# [1] = tested on: SARS-CoV-2 (USA_WA01/2020) in Vero E6 cells; test: Antiviral assay in SARS-CoV-2-infected Vero E6 cells; format: cell-based; settings: read-out: Antiviral EC50, MOI 0.01, 72 h, cell proliferation
# SARS-CoV-2 M^pro [2] = target: T1, SARS-CoV-2 M^pro (Severe acute respiratory syndrome coronavirus 2, UniProt P0DTD1); test: Preincubation dilution experiment; format: biochemical
# SARS-CoV-2 M^pro [3] = target: T1, SARS-CoV-2 M^pro; test: Steady-state enzyme kinetics, inhibition mechanism; format: biochemical
# [4] = tested on: SARS-CoV-2 USA-WA1/2020 in human iPSC-derived lung organoids
# [5] = 10 μM preincubation 30 min, 10× dilution
compound,measurement,setting,value
"2-(4-Chlorophenyl)benzo[d][1,2]selenazol-3(2H)-one [Compound E15]",EC50,[1],11.2 ± 1.3 µM
"O=c1c2ccccc2[se]n1-c1ccccc1 [Compound E01, 2-Phenylbenzo[d][1,2]selenazol-3(2H)-one, reference compound]",type of inhibition from preincubation dilution,SARS-CoV-2 M^pro [2],reversible covalent inhibitor
same,mechanism of inhibition,SARS-CoV-2 M^pro [3],likely competitive inhibitors
"O=c1c2ccccc2[se]n1-c1ccc(C(F)(F)F)cc1 [Compound E04, 2-(4-(Trifluoromethyl)phenyl)benzo[d][1,2]selenazol-3(2H)-one]",type of inhibition from preincubation dilution,SARS-CoV-2 M^pro [2]; [5],rapidly reversible inhibitor
same,mechanism of inhibition,"SARS-CoV-2 M^pro [3]; 0.5-10 μM inhibitor, 1.5-30 μM substrate, global fit to mixed model",likely competitive inhibitors
"COc1ccc(Cn2[se]c3ccccc3c2=O)c(OC)c1 [Compound E07, 2-(2,4-Dimethoxybenzyl)benzo[d][1,2]selenazol-3(2H)-one]",type of inhibition from preincubation dilution,SARS-CoV-2 M^pro [2]; [5],reversible covalent inhibitor
"O=c1c2ccccc2[se]n1-c1cccc(Cl)c1 [Compound E19, 2-(3-Chlorophenyl)benzo[d][1,2]selenazol-3(2H)-one]",type of inhibition from preincubation dilution,SARS-CoV-2 M^pro [2]; [5],rapidly reversible inhibitor
"O=c1c2ccccc2[se]n1-c1cc(Cl)cc(Cl)c1 [Compound E20, 2-(3,5-Dichlorophenyl)benzo[d][1,2]selenazol-3(2H)-one]",type of inhibition from preincubation dilution,SARS-CoV-2 M^pro [2]; [5],reversible covalent inhibitor
"O=c1c2ccccc2[se]n1-c1cccc(C(F)(F)F)c1 [Compound E24, 2-(3-(Trifluoromethyl)phenyl)benzo[d][1,2]selenazol-3(2H)-one]","reduction of viral RNA levels, intracellular fraction",[4],~50%
same,"reduction of viral RNA levels, supernatant fraction",[4],~50%
same,toxicity toward the organoids,"[4]; 5 μM, 72 h",no observable toxicity
"N#Cc1cccc(-n2[se]c3ccccc3c2=O)c1 [Compound E25, 3-(3-Oxobenzo[d][1,2]selenazol-2(3H)-yl)benzonitrile]",type of inhibition from preincubation dilution,SARS-CoV-2 M^pro [2]; [5],some recovery of the enzymatic activity but not a complete recovery; also recorded: reversible covalent inhibitor

# — article PMC8491550 (Journal of Medicinal Chemistry, 2021)
